From patent US20200079766A1, “MONOCYCLIC OGA INHIBITOR COMPOUNDS” (Janssen Pharmaceutica NV, priority 2016, published 2020)
Read-outs that look alike come from different tables or passages of the source.

Tests used:
[1] = biological target: T1, recombinant human Meningioma Expressed Antigen 5 (MGEA5), also referred to as O-GlcNAcase (OGA) (Homo sapiens, UniProt O60502); assay: OGA biochemical assay: inhibition of FM-GlcNAc hydrolysis, fluorescence; protocol A (10 nM OGA, 1 h) or protocol B (2 nM OGA, 6 h); settings: for IC50: read-out: Enzymatic hOGA, pIC50 (converted)
T1 construct: Full length OGA enzyme was purchased at OriGene (cat # TP322411); purchased OriGene TP322411
T1 sequence (O60502 1-916): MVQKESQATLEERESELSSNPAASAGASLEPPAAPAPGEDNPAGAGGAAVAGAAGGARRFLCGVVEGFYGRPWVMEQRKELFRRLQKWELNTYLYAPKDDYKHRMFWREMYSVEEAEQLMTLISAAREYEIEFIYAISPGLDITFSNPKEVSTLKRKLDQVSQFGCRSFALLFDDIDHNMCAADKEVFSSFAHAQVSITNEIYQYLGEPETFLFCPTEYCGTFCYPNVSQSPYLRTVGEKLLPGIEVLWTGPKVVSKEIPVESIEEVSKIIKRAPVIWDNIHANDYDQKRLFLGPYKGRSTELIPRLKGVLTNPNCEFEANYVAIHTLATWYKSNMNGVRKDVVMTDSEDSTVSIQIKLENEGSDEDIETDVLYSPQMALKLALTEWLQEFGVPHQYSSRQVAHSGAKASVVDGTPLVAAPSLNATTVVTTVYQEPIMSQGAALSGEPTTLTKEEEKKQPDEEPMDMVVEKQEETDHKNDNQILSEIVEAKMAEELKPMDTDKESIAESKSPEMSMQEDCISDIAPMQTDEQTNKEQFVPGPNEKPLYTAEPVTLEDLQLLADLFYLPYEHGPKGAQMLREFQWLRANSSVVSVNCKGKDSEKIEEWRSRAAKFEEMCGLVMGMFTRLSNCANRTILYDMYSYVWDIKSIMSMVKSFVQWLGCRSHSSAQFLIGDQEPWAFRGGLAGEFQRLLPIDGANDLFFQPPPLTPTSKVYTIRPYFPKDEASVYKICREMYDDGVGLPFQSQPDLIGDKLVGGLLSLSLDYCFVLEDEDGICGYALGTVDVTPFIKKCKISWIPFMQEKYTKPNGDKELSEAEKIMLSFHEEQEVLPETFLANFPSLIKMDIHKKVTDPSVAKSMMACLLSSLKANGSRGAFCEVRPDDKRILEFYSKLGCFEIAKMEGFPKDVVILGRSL
Text: The assay is based on the inhibition of the hydrolysis of fluorescein mono-3-D-N-Acetyl-Glucosamine (FM-GlcNAc) (Mariappa et al. 2015, Biochem J 470:255) by the recombinant human Meningioma Expressed Antigen 5 (MGEA5), also referred to as O-GlcNAcase (OGA). The hydrolysis FM-GlcNAc (Marker Gene technologies, cat # M1485) results in the formation of ß-D-N-glucosamineacetate and fluorescein. The fluorescence of the latter can be measured at excitation wavelength 485 nm and emission wavelength 538 nm. An increase in enzyme activity results in an increase in fluorescence signal. Full length OGA enzyme was purchased at OriGene (cat # TP322411). The enzyme was stored in 25 mM Tris.HCl, pH 7.3, 100 mM glycine, 10% glycerol at −20° C. Thiamet G and GlcNAcStatin were tested as reference compounds (Yuzwa et al. 2008 Nature Chemical Biology 4:483; Yuzwa et al. 2012 Nature Chemical Biology 8:393). The assay was performed in 200 mM Citrate/phosphate buffer supplemented with 0.005% Tween-20. 35.6 g Na2HPO42H2O (Sigma, # C0759) were dissolved in 1 L water to obtain a 200 mM solution. 19.2 g citric acid (Merck, #1.06580) was dissolved in 1 L water to obtain a 100 mM solution. pH of the sodiumphosphate solution was adjusted with the citric acid solution to 7.2. The buffer to stop the reaction consists of a 500 mM Carbonate buffer, pH 11.0. 734 mg
FM-GlcNAc were dissolved in 5.48 mL DMSO to obtain a 250 mM solution and was stored at −20° C. OGA was used at a 10 nM (protocol A) or 2 nM (protocol B) concentration and FM-GlcNAc at a 100 uM final concentration. Dilutions were prepared in assay buffer.
50 nl of a compound dissolved in DMSO was dispensed on Black Proxiplate™ 384 Plus Assay plates (Perkin Elmer, #6008269) and 3 μl fl-OGA enzyme mix added subsequently. Plates were pre-incubated for 60 min at room temperature and then 2 μl FM-GlcNAc substrate mix added. […] Plates were briefly centrifuged for 1 min at 1000 rpm and incubate at room temperature for 1 h (10 nM OGA, protocol A) or 6 h (2 nM OGA, protocol B). To stop the reaction 5 μl STOP buffer were added and plates centrifuge again 1 min at 1000 rpm. Fluorescence was quantified in the Thermo Scientific Fluoroskan Ascent or the PerkinElmer EnVision with excitation wavelength 485 nm and emission wavelength 538 nm.
For analysis a best-fit curve is fitted by a minimum sum of squares method. From this an IC50 value and Hill coefficient was obtained. High control (no inhibitor) and low control (saturating concentrations of standard inhibitor) were used to define the minimum and maximum values.

[2] = system: OGA in HEK293 cells inducible for P301L mutant human Tau (isoform 2N4R); assay: OGA cellular assay: immunocytochemical detection of O-GlcNAcylated proteins (CTD110.6 antibody) after 6 h incubation; assay type: cell-based; settings: for Emax / EC50: Homo sapiens, HEK293, 6 h; for Emax / Cellular Emax (%): maximum = Thiamet G 200 uM; for EC50: read-out: Cellular hOGA, pEC50 (converted)
Protocol: HEK293 cells inducible for P301L mutant human Tau (isoform 2N4R) were established at Janssen. Thiamet-G was used for both plate validation (high control) and as reference compound (reference EC50 assay validation). OGA inhibition is evaluated through the immunocytochemical (ICC) detection of O-GlcNAcylated proteins by the use of a monoclonal antibody (CTD110.6; Cell Signaling, #9875) detecting O-GlcNAcylated residues as previoulsy described (Dorfmueller et al. 2010 Chemistry & biology, 17:1250). Inhibition of OGA will result in an increase of O-GlcNAcylated protein levels resulting in an increased signal in the experiment. Cell nuclei are stained with Hoechst to give a cell culture quality control and a rough estimate of immediate compounds toxicity, if any. ICC pictures are imaged with a Perkin Elmer Opera Phenix plate microscope and quantified with the provided software Perkin Elmer Harmony 4.1.
Cells were propagated in DMEM high Glucose (Sigma, # D5796) following standard procedures. 2 days before the cell assay cells are split, counted and seeded in Poly-D-Lysine (PDL) coated 96-wells (Greiner, #655946) plate at a cell density of 12,000 cells per cm^2 (4,000 cells per well) in 100 μl of Assay Medium (Low Glucose medium is used to reduce basal levels of GlcNAcylation) (Park et al. 2014 The Journal of biological chemistry 289:13519). At the day of compound test medium from assay plates was removed and replenished with 90 μl of fresh Assay Medium. 10 μl of compounds at a 10 fold final concentration were added to the wells. Plates were centrifuged shortly before incubation in the cell incubator for 6 hours. DMSO concentration was set to 0.2%. Medium is discarded by applying vacuum. For staining of cells medium was removed and cells washed once with 100 μl D-PBS (Sigma, # D8537). From next step onwards unless other stated assay volume was always 50 μl and incubation was performed without agitation and at room temperature. Cells were fixed in 50 μl of a 4% paraformaldehyde (PFA, Alpha aesar, #043368) PBS solution for 15 minutes at room temperature. […] Before analysis samples were washed 2 times manually for 5 minutes in ICC base buffer.
Imaging is performed using Perkin Elmer Phenix Opera using a water 20× objective and recording 9 fields per well. Intensity readout at 488 nm is used as a measure of O-GlcNAcylation level of total proteins in wells. To assess potential toxicity of compounds nuclei were counted using the Hoechst staining. IC50-values are calculated using parametric non-linear regression model fitting. As a maximum inhibition Thiamet G at a 200 uM concentration is present on each plate. In addition, a concentration response of Thiamet G is calculated on each plate.

[3] = Enzymatic protocol B (2 nM OGA, 6 h)
[4] = Enzymatic protocol A (10 nM OGA, 1 h)

SMILES | Emax [1, 3] | IC50 [1, 3] | Emax [2] | EC50 [2] | Cellular hOGA; pEC50 [2] | Cellular Emax (%) [2] | Enzymatic Emax (%) [1, 3] | Emax [1, 4] | IC50 [1, 4]
CC(=O)Nc1ncc(C(C)N2CCCC(COc3cc(C)nc(C)c3)C2)s1 (single isomer, unassigned) [compound 134] | 100% | 28.2 nM | 79.5% | 52.5 nM | – | – | – | – | –
CC(=O)Nc1ncc([C@@H](C)N2CCC[C@@H](COc3cc(C)nc(C)c3)C2)s1 (single isomer, unassigned) [compound 135] | 104% | 178 nM | – | – | 6.3 | 67.9% | – | – | –
CC(=O)Nc1ncc([C@@H](C)N2CCC[C@H](COc3cc(C)nc(C)c3)C2)s1 (single isomer, unassigned) [compound 136] | 100% | 95.5 nM | 70.6% | 479 nM | – | – | – | – | –
CC(=O)Nc1ncc([C@@H](C)N2CCC[C@@H](COc3cc(C)nc(C)c3)C2)s1 (single isomer, unassigned) [compound 137] | – | 0.955 nM | – | – | 8.83 | 94.7% | 102.2% | – | –
CC(=O)Nc1ncc(CN2CCCC(c3ccnc(C)c3)C2)s1 (stereo not shown) [compound 6] | 101% | 27.5 nM | 98.7% | 27.5 nM | – | – | – | – | –
CC(=O)Nc1ncc(CN2CCCC(c3cc(C)nc(C)c3)C2)s1 (stereo not shown) [compound 7] | 99.3% | 17.8 nM | 98.9% | 8.91 nM | – | – | – | – | –
CC(=O)Nc1ncc(CN2CCC[C@H](Nc3cc(C)nc(C)c3)C2)s1 [compound 9] | 103% | 3.72 nM | 102% | 47.9 nM | – | – | – | – | –
Cc1cc(N[C@@H]2CCCN(C(C)c3ccc4nccnc4c3)C2)cc(C)n1 (stereo partly shown) [compound 11] | 101% | 25.7 nM | 65.2% | 4270 nM | – | – | – | – | –
CC(=O)Nc1ncc(CN2CCCC(Oc3cc(C)cc(C)c3)C2)s1 (stereo not shown) [compound 13, reference compound] | 98.7% | 93.3 nM | 92.1% | 316 nM | – | – | – | – | –
CC(=O)Nc1ncc(CN2CCCC(Oc3cc(C)nc(C)c3)C2)s1 (stereo not shown) [compound 14] | 101% | 9.12 nM | 118% | 112 nM | – | – | – | 100% | 8.13 nM
CC(=O)Nc1ncc(CN2CCC[C@@H](Oc3cc(C)nc(C)c3)C2)s1 [compound 15] | 102% | 8.51 nM | 98.4% | 1230 nM | – | – | – | – | –
CC(=O)Nc1ncc(CN2CCC[C@H](Oc3cc(C)nc(C)c3)C2)s1 [compound 16] | 101% | 70.8 nM | 115% | 63.1 nM | – | – | – | – | –
Cc1cc(O[C@@H]2CCCN(Cc3ccc4nccnc4c3)C2)cc(C)n1 [compound 18] | 97.9% | 417 nM | 12.4% | > 10000 nM | – | – | – | – | –
CC(=O)Nc1ncc(CN2CCCC(COc3cc(C)nc(C)c3)C2)s1 (stereo not shown) [compound 20] | 101% | 6.76 nM | 111% | 6.31 nM | – | – | – | – | –
CC(=O)Nc1ncc(CN2CCCC(Cc3cc(C)nc(C)n3)C2)s1 (stereo not shown) [compound 24] | 101% | 5.5 nM | 111% | 32.4 nM | – | – | – | – | –
CC(=O)Nc1ncc(CN2CCCC(Cc3cc(C)nc(C)c3)C2)s1 (stereo not shown) [compound 27] | 99.6% | 2.45 nM | 118% | 5.25 nM | – | – | – | – | –
CC(=O)Nc1ncc(CN2CCC[C@H](Cc3cc(C)nc(C)c3)C2)s1 [compound 28] | 102% | 1.05 nM | 106% | 4.47 nM | – | – | – | – | –
CC(=O)Nc1ncc(CN2CCC[C@@H](Cc3cc(C)nc(C)c3)C2)s1 [compound 29] | 102% | 8.71 nM | 108% | 56.2 nM | – | – | – | – | –
CC(=O)Nc1ncc(CN2CCC(Cc3cc(C)nc(C)c3)C2)s1 (stereo not shown) [compound 30] | 124% | 4.68 nM | 99.2% | 13.2 nM | – | – | – | – | –
CC(=O)Nc1ncc(CN2CCCC(Nc3cc(C)nc(C)c3)C2)s1 (stereo not shown) [compound 31] | 102% | 3.24 nM | 90.2% | 20 nM | – | – | – | – | –
CC(=O)Nc1ncc(S(=O)(=O)N2CCC[C@H](Cc3cc(C)nc(C)c3)C2)s1 [compound 33] | 99.9% | 72.4 nM | 33.8% | > 1000 nM | – | – | – | – | –
CC(=O)Nc1ncc(CN2CC[C@@H](Cc3ncc(C)cc3C(F)(F)F)C2)s1 [compound 35] | 101% | 12.6 nM | 91.9% | 77.6 nM | – | – | – | – | –
CC(=O)Nc1ncc(CN2CC[C@H](Cc3cnc(C)c(C)c3)C2)s1 [compound 37] | 99.1% | 3.09 nM | 87.8% | 18.2 nM | – | – | – | – | –
